Test results taken from PMC6199744, “Development of Chemical Proteomics for the Folateome and Analysis of the Kinetoplastid Folateome” (ACS Infectious Diseases, 2018).

Tested on: L. major lysate proteins
Experiment: Multitargeted bead mixture chemoproteomics, single concentration competition, proteome-wide
Assay type: binding
Conditions: for fold change: vehicle control = 1

In the case of NCCCNc1ccc(C(=O)NC(CCC(=O)O)C(=O)O)cc1 (stereo not drawn) [compound 7], the “fold change vs vehicle control” value (protein LMJF.28.0110 PROTEASOME BETA 3 SUBUNIT, PUTATIVE) is reported as 0.99, the “fold change vs vehicle control” value (protein LMJF.28.0490 PROPIONYL-COA C[…] CHAIN, PUTATIVE) is reported as 1.21 and the fold change (protein LMJF.28.0710 HYPOTHETICAL PROTEIN, CONSERVED (SNARE associated Golgi protein, putative)) is reported as 0.86. For the same molecule, the “fold change vs vehicle control” value (protein LMJF.28.0930 HYPOTHETICAL PROTEIN, CONSERVED) was 0.98, the “fold change vs vehicle control” value (protein LMJF.28.0960 40S RIBOSOMAL PROTEIN S14) was 0.99 and the “fold change vs vehicle control” value (protein LMJF.28.1530 ATP DEPENDENT DEAD-BOX HELICASE, PUTATIVE) was 0.89. The “fold change relative to vehicle control” value (protein LMJF.28.1730, PROTEASOME REGULATORY NON-ATP-ASE SUBUNIT 2, PUTATIVE) was 1.27, the “fold change relative to vehicle control” value (protein LMJF.28.2310, EUKARYOTIC TRANSLATION INITIATION FACTOR, PUTATIVE) was 0.98 and the “fold change vs vehicle control” value (protein LMJF.28.2430 VACUOLAR ATP SYNTHASE SUBUNIT B, PUTATIVE) was 1.03. For the same molecule, the “fold change relative to vehicle control” value (protein LMJF.28.2770, HEAT-SHOCK PROTEIN HSP70, PUTATIVE) was 1.05, the fold change (protein LMJF.28.2910 GLUTAMATE DEHYDROGENASE, PUTATIVE) was 0.88 and the “fold change vs vehicle control” value (protein LMJF.29.0120 PROTEASOME REGULATORY NON-ATPASE SUBUNIT, PUTATIVE) was 1.1. For the same molecule, the fold change (protein LMJF.29.0620 ATP-BINDING CASSETTE PROTEIN SUBFAMILY A, MEMBER 10, PUTATIVE) was 0.79, the “fold change vs vehicle control” value (protein LMJF.29.0760 […] BI[…], PUTATIVE,HEAT SHOCK PROTEIN 90, PUTATIVE) was 1.16 and the “fold change relative to vehicle control” value (protein LMJF.29.0850, HIGH MOBILITY GROUP PROTEIN HOMOLOG TDP-1, PUTATIVE) was 0.78. For the same molecule, the “fold change vs vehicle control” value (protein LMJF.29.0940 HY[…], CONSERVED) was 1.11, the “fold change vs vehicle control” value (protein LMJF.29.1160 TRYPAREDOXIN) was 0.93 and the “fold change vs vehicle control” value (protein LMJF.29.1240 HY[…], UNKNOWN FUNCTION) was 1.04. For the same molecule, the “fold change vs vehicle control” value (protein LMJF.29.1270 100 kDa heat shock protein (Hsp100)) was 1.12, the “fold change vs vehicle control” value (protein LMJF.29.1310 CARNITINE/CHOLINE ACETYLTRANSFERASE, PUTATIVE) was 1 and the “fold change relative to vehicle control” value (protein LMJF.29.1760, PARAFLAGELLAR ROD PROTEIN 1D, PUTATIVE) was 1.2. For the same molecule, the “fold change vs vehicle control” value (protein LMJF.29.1780 DIPHTHAMIDE SYNTHESIS PROTEIN, PUTATIVE) was 0.94, the fold change (protein LMJF.29.2200 GTP-BINDING PROTEIN, PUTATIVE (dynamin-1-like protein)) was 0.93 and the fold change (protein LMJF.29.2310 ENOYL-COA HYDRATASE/ISOMERASE-LIKE PROTEIN) was 0.93. For the same molecule, the “fold change vs vehicle control” value (protein LMJF.29.2360 ASPARTYL AMINOPEPTIDASE, PUTATIVE,METALLO-PEPTIDASE, CLAN MH, FAMILY M20) was 1.05, the fold change (protein LMJF.29.2860 40S RIBOSOMAL PROTEIN S19-LIKE PROTEIN) was 1.02 and the fold change (protein LMJF.30.0580 HYPOTHETICAL PROTEIN, CONSERVED (AMP-binding enzyme, putative)) was 0.85. For the same molecule, the fold change (protein LMJF.30.0850 SURFACE PROTEIN AMASTIN, PUTATIVE) was 0.92, the “fold change vs vehicle control” value (protein LMJF.30.1250 PYRIDOXAL KINASE, PUTATIVE) was 1.11 and the “fold change vs vehicle control” value (protein LMJF.30.2580 RETICULON DOMAIN PROTEIN, 22 KDA POTENTIALLY AGGRAVATING PROTEIN (PAPLE22)) was 0.95. The “fold change relative to vehicle control” value (protein LMJF.30.3090, HY[…], CONSERVED (RNA-binding protein 42, putative)) was 1.06, the “fold change vs vehicle control” value (protein LMJF.30.3240 GLUTAMYL-TRNA SYNTHETASE, PUTATIVE) was 0.99 and the fold change (protein LMJF.30.3430 HYPOTHETICAL PROTEIN, CONSERVED (protein mkt1, putative)) was 1. The fold change (protein LMJF.30.3520 S-ADENOSYLMETHIONINE SYNTHETASE) was 0.93, the fold change (protein LMJF.30.3570 ZINC FINGER-DOMAIN PROTEIN, PUTATIVE) was 0.92 and the “fold change relative to vehicle control” value (protein LMJF.31.0080, HY[…], CONSERVED) was 1.21. For the same molecule, the “fold change vs vehicle control” value (protein LMJF.31.0340 AMINO ACID PERMEASE, PUTATIVE) was 1.04, the fold change (protein LMJF.31.1130 N-ACYL-L-AMINO ACID AMIDOHYDROLASE, PUTATIVE) was 1.03 and the “fold change vs vehicle control” value (protein LMJF.31.1640 THIOLASE PROTEIN-LIKE PROTEIN) was 0.99. For the same molecule, the “fold change relative to vehicle control” value (protein LMJF.31.2150, PROSTAGLANDIN F2-ALPHA SYNTHASE/D-ARABINOSE DEHYDROGENASE) was 2.99, the “fold change vs vehicle control” value (protein LMJF.31.2250 3,2-TRANS-ENOYL-COA ISOMERASE, MIT[…], PUTATIVE) was 1.97 and the “fold change vs vehicle control” value (protein LMJF.32.0750 RNA BINDING PROTEIN, PUTATIVE) was 0.99. The “fold change vs vehicle control” value (protein LMJF.32.1060 DYNEIN, PUTATIVE) was 1.08, the “fold change relative to vehicle control” value (protein LMJF.32.1820, IRON […], PUTATIVE) was 1.09 and the “fold change relative to vehicle control” value (protein LMJF.32.2320, C-14 STEROL REDUCTASE, PUTATIVE) was 1.65. For the same molecule, the “fold change vs vehicle control” value (protein LMJF.32.3870 MYOSIN XXI) was 0.92, the “fold change relative to vehicle control” value (protein LMJF.33.0240, THIOL-DEPENDENT REDUCTASE 1) was 1.07 and the fold change (protein LMJF.33.0280 HYPOTHETICAL PROTEIN, CONSERVED) was 0.96. The “fold change relative to vehicle control” value (protein LMJF.33.0890, HYPOTHETICAL PROTEIN, CONSERVED) was 0.93, the “fold change vs vehicle control” value (protein LMJF.33.1070 HY[…], UNKNOWN FUNCTION) was 1.09 and the “fold change vs vehicle control” value (protein LMJF.33.1330 CYSTEINE CONJUGATE BETA-LYASE, AMINOTRANSFERASE- LIKE PROTEIN) was 0.98. The fold change (protein LMJF.33.1590 HYPOTHETICAL PROTEIN, CONSERVED (3-ketoacyl-CoA reductase, putative)) was 1, the “fold change relative to vehicle control” value (protein LMJF.33.1860, ATP-BINDING CASSETTE PROTEIN SUBFAMILY D, MEMBER 3, PUTATIVE) was 1.06 and the “fold change relative to vehicle control” value (protein LMJF.33.2340, SUCCINYL-COA:3-KETOACID-COENZYME A TRANSFERASE, MIT[…], PUTATIVE) was 1.19. For the same molecule, the “fold change relative to vehicle control” value (protein LMJF.33.2440, HY[…], CONSERVED) was 1.14, the “fold change relative to vehicle control” value (protein LMJF.33.2540, CARBOXYPEPTIDASE, PUTATIVE,METALLO-PEPTIDASE, CLAN MA(E), FAMILY M32) was 1.06 and the fold change (protein LMJF.33.3150 40S RIBOSOMAL PROTEIN S13, PUTATIVE) was 0.96. The “fold change relative to vehicle control” value (protein LMJF.34.0140, MALATE DEHYDROGENASE) was 6.88, the “fold change vs vehicle control” value (protein LMJF.34.0440 RIBOSOMAL PROTEIN S25) was 1.13 and the “fold change relative to vehicle control” value (protein LMJF.34.2580, HY[…], CONSERVED (ALBA-domain protein 3)) was 1.04. The “fold change relative to vehicle control” value (protein LMJF.34.3250, PUTATIVE PYRUVATE/INDOLE-PYRUVATE CARBOXYLASE, PUTATIVE) was 1.08, the fold change (protein LMJF.34.4370 20S PROTEASOME BETA 7 SUBUNIT, (PUTATIVE)) was 0.97 and the “fold change vs vehicle control” value (protein LMJF.34.4620 HYPOTHETICAL PROTEIN, CONSERVED) was 1.3. For the same molecule, the fold change (protein LMJF.35.0070 PROHIBITIN, PUTATIVE) was 1.03, the “fold change vs vehicle control” value (protein LMJF.35.0360 ENOYL-COA HYDRATASE/ISOMERASE FAMILY PROTEIN, CONSERVED) was 1.09 and the fold change (protein LMJF.35.0370 ATP-DEPENDENT DEAD-BOX RNA HELICASE, PUTATIVE) was 0.98.
